{"source": "paper PMC9851200", "about": "“Multiparameter phenotypic screening for endogenous TFEB and TFE3 translocation identifies novel chemical series modulating lysosome function” (Autophagy, 2022)", "origin": "cited, not measured here", "parameters_in_all_cases": "method as in original PKIS2 published data", "key": {"[1]": {"target": "kinases (KINOMEscan panel) (Homo sapiens, UniProt P16234)", "sequence (P16234 24-1089)": "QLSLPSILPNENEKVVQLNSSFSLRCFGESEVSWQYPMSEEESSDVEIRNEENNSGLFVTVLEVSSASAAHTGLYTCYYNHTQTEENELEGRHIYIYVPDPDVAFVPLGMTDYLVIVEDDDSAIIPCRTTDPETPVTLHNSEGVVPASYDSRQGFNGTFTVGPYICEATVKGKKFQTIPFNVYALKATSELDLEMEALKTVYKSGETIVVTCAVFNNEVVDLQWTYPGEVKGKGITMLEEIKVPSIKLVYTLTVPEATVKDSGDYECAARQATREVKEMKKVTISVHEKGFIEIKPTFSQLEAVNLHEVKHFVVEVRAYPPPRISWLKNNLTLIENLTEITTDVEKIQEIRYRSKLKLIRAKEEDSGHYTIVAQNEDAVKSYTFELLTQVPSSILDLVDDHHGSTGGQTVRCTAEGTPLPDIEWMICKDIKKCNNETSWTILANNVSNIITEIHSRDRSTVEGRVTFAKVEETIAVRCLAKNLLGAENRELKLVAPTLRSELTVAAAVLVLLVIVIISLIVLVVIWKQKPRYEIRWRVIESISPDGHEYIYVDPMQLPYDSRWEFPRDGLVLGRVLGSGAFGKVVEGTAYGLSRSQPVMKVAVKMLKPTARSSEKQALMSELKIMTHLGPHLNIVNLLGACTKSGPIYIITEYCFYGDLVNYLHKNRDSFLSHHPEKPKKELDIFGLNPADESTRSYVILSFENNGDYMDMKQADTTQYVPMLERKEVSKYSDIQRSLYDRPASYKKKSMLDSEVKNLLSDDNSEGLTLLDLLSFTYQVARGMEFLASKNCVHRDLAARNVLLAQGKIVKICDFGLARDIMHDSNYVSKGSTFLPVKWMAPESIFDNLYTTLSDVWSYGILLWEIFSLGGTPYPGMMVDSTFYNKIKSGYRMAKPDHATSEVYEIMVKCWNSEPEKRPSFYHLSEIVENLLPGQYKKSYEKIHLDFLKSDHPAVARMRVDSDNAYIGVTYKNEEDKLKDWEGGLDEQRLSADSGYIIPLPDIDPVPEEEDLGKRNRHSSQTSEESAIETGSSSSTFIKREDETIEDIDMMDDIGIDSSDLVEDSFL", "details": "PDGFRA; Published KINOMEscan; ref original PKIS2 published data; cited from earlier work"}, "[2]": {"target": "kinases (KINOMEscan panel) (Homo sapiens, UniProt P41240)", "sequence (P41240 whole entry)": "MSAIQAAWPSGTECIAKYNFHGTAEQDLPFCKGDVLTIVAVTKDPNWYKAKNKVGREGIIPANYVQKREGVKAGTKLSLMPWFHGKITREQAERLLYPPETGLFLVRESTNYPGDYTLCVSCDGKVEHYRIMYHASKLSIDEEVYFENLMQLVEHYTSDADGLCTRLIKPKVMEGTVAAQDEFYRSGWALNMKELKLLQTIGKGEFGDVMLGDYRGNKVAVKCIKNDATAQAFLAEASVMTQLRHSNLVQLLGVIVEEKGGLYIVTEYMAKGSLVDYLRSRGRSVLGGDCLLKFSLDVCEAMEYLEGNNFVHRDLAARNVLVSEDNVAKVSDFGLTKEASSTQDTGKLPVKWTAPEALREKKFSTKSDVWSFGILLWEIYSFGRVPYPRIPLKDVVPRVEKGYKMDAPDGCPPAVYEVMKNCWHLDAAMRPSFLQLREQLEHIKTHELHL", "details": "kinase CSK; Published KINOMEscan; ref original PKIS2 published data; cited from earlier work"}, "[3]": {"target": "kinases (KINOMEscan panel) (Homo sapiens, UniProt Q00535)", "sequence (Q00535 whole entry)": "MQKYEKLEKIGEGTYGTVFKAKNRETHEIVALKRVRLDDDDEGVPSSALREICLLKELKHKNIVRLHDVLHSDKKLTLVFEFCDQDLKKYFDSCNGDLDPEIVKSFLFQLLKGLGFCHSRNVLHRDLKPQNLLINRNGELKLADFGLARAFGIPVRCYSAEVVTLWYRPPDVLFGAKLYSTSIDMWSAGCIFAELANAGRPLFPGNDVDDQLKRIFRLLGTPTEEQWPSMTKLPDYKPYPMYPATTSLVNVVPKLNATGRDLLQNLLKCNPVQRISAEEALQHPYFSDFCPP", "details": "Published KINOMEscan; ref original PKIS2 published data; cited from earlier work"}, "[4]": {"target": "T1, kinases (KINOMEscan panel) (Homo sapiens, UniProt Q04771)", "T1 sequence (Q04771 21-509)": "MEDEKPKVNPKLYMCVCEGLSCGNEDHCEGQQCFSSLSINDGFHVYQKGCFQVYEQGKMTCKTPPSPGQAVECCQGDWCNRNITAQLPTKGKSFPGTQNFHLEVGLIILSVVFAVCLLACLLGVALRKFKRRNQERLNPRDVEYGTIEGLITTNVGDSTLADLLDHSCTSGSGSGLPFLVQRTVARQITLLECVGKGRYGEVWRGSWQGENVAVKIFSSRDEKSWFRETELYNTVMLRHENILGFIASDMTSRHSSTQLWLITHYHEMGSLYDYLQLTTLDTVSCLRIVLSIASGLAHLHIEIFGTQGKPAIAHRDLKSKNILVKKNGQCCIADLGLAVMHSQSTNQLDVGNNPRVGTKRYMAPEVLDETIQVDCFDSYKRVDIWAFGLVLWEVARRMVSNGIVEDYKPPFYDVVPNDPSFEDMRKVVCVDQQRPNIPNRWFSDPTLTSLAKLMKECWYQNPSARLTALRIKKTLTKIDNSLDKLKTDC", "details": "ACVR1; Published KINOMEscan; ref original PKIS2 published data; cited from earlier work"}, "[5]": {"target": "T2, kinases (KINOMEscan panel) (Homo sapiens, UniProt Q14164)", "T2 sequence (Q14164 1-716)": "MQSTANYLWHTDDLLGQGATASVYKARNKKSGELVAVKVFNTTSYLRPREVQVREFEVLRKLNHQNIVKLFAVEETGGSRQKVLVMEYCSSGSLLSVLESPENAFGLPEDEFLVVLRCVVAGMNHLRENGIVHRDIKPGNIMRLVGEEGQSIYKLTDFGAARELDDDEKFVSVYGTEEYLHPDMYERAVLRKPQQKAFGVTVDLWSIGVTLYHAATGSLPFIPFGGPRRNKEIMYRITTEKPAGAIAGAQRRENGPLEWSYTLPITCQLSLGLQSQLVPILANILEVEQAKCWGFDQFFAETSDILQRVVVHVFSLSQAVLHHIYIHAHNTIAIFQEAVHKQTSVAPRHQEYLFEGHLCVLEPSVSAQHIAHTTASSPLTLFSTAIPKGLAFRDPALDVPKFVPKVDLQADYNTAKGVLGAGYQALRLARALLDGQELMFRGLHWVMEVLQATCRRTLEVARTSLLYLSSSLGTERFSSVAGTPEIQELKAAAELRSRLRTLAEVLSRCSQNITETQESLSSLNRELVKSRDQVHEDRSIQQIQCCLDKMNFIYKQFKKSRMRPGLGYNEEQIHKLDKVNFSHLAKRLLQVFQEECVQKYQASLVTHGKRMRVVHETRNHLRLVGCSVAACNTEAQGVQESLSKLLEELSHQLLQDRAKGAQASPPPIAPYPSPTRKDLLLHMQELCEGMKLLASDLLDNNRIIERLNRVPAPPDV", "details": "cited from earlier work"}, "[6]": {"target": "T3, kinases (KINOMEscan panel) (Homo sapiens, UniProt Q9NRH2)", "T3 sequence (Q9NRH2 1-765)": "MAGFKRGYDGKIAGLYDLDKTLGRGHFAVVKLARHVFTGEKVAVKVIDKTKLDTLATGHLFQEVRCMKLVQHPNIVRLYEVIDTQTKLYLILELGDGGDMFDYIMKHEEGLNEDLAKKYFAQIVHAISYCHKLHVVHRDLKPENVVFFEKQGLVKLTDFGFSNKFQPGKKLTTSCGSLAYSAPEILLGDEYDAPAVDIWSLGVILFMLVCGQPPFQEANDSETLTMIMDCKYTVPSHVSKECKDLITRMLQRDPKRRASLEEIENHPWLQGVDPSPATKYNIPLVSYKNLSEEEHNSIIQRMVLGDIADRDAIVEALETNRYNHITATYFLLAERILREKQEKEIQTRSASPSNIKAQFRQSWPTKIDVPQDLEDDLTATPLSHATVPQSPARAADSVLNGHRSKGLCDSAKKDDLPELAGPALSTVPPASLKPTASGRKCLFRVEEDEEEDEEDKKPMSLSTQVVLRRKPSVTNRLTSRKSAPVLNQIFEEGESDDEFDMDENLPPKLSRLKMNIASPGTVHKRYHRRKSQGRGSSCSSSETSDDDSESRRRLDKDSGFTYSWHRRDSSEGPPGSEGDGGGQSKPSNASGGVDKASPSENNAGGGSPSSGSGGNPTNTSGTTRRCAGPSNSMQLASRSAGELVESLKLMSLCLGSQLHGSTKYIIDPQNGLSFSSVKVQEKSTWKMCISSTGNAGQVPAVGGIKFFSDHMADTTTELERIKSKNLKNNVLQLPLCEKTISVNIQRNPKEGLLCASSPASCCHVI", "details": "kinase SNRK; Published KINOMEscan; ref original PKIS2 published data; cited from earlier work"}}}
{"smiles": "Cc1cccc(-c2nc(Nc3ccncc3)c3ccccc3n2)n1", "note": "[NK215]", "values": [{"measurement": "KINOMEscan PDGFRA", "setting": "[1]", "result": 0}, {"measurement": "KINOMEscan CSK", "setting": "[2]", "result": 4}, {"measurement": "KINOMEscan CDK5", "setting": "[3]", "result": 0}, {"measurement": "KINOMEscan ACVR1", "setting": "[4]", "result": 15}, {"measurement": "KINOMEscan IKBKE/IKK-epsilon", "setting": "[5]", "result": 0}, {"measurement": "KINOMEscan SNRK", "setting": "[6]", "result": 0}]}
